{"source": "patent US9751837B2", "about": "“Kinase inhibitors” (RESPIVERT LIMITED, priority 2014, dated 2017)", "assay": "Solubility in fasted-state simulated colonic fluid (FaSSCoF) at pH 6.5", "type": "physicochemical", "conditions": "25 °C, pH 6.5, fassgf or other biorelevant, thermodynamic from solid", "experimental": "The solubilities of compounds of the invention in FaSSCoF at pH 6.5 are determined using a modification of a previously-reported procedure (Vertzoni, M., et al. Pharm. Res. 2010, 27, 2187-2196). In place of the bile salt extract employed in the original procedure (which extract is no longer available), the modified procedure uses a mixture of sodium taurochlorate (0.15 g), glycocholic acid (0.15 g), ursodeoxycholic acid (0.05 g), cholic acid (0.05 g), and glycodeoxycholic acid (0.05 g). These five bile acids are ground together with a mortar and pestle to produce a fine white powder that is incorporated into the FaSSCoF, as outlined below.\nTris(hydroxymethyl)aminomethane (Tris; 0.275 g) and maleic acid (0.44 g) are dissolved in water (35 mL) to give a solution whose pH is adjusted to 6.5 by treatment with 0.5M NaOH (ca. 12 mL). The solution is then made up to 50 mL with water. A portion of this Tris/maleate buffer solution (ca. 25 mL) is added to a 0.5 L round-bottomed flask, before being treated with 0.00565 g of the bile acid mixture described above. Solutions of phosphatidylcholine (0.0111 g) in DCM (0.15 mL) and palmitic acid (0.0013 g) in DCM (0.15 mL) are added, then the organic solvent is evaporated off under reduced pressure at 40° C. until a clear solution, with no perceptible DCM odour, is achieved. The volume of the evaporated solution is adjusted to 50 mL by addition of the remainder of Tris/maleate buffer, then BSA (0.115 g) is added, before being dissolved by gentle agitation.\nTest compounds are suspended in the pH 6.5 FaSSCoF medium to give a maximum final concentration of 2-10 mg/mL. The suspensions are equilibrated at 25° C. for 24 h, before being filtered through a glass fibre C filter. The filtrates are then diluted as appropriate for injection and quantification by HPLC with reference to a standard. Different volumes of the standard, diluted and undiluted sample solutions are injected and the solubilities are calculated using the peak areas determined by integration of the peak found at the same retention time as the principal peak in the standard injection.", "key": {"[1]": {"conditions": "pH 6.5 FaSSCoF Solubility (mg/mL) Run 1"}, "[2]": {"conditions": "pH 6.5 FaSSCoF Solubility (mg/mL) Run 2"}}, "note": "Structures can show the parent of a compound that is named as a salt."}
{"smiles": "COc1c(NC(=O)Nc2ccc(Oc3ccnc(Nc4ccc(C(=O)O)c(N(C)C)c4)c3)c3ccccc23)cc(C(C)(C)C)cc1NS(C)(=O)=O", "note": "[17(am), 4-[[4-[[4-[[5-tert-butyl-3-(methanesulfonamido)-2-methoxy-phenyl]carbamoylamino]-1-naphthyl]oxy]-2-pyridyl]amino]-2-(dimethylamino)benzoic acid]", "values": [{"measurement": "solubility thermodynamic at 24 h", "setting": "[1]", "result": 10, "unit": "µg/mL"}, {"measurement": "solubility thermodynamic at 24 h", "setting": "[2]", "result": 12, "unit": "µg/mL"}]}
{"smiles": "COc1cc(Nc2cc(Oc3ccc(NC(=O)Nc4cc(C(C)(C)C)cc(NS(C)(=O)=O)c4OC)c4ccccc34)ccn2)ccc1C(=O)NCC(=O)O", "note": "[17(ar) (hydrochloride salt), 2-(4-((4-((4-(3-(5-(tert-Butyl)-2-methoxy-3-(methylsulfonamido)phenyl)ureido)naphthalen-1-yl)oxy)pyridin-2-yl)amino)-2-methoxybenzamido)acetic acid]", "values": [{"measurement": "solubility thermodynamic at 24 h", "setting": "[1]", "result": 204, "unit": "µg/mL"}, {"measurement": "solubility thermodynamic at 24 h", "setting": "[2]", "result": 198, "unit": "µg/mL"}]}
{"smiles": "COc1cc(Nc2cc(Oc3ccc(NC(=O)Nc4cc(C(C)(C)C)cc(NS(C)(=O)=O)c4OC)c4ccccc34)ccn2)cc(OC)c1C(=O)NCCC1CCN(C)CC1", "note": "[17(at), 4-((4-((4-(3-(5-(tert-Butyl)-2-methoxy-3-(methylsulfonamido)phenyl)ureido)naphthalen-1-yl)oxy)pyridin-2-yl)amino)-2,6-dimethoxy-N-(2-(1-methylpiperidin-4-yl)ethyl)benzamide]", "values": [{"measurement": "solubility thermodynamic at 24 h", "setting": "[1]", "result": 9, "unit": "µg/mL"}, {"measurement": "solubility thermodynamic at 24 h", "setting": "[2]", "result": 9, "unit": "µg/mL"}]}
{"smiles": "COc1cc(Nc2cc(Oc3ccc(NC(=O)Nc4cc(C(C)(C)C)cc(NS(C)(=O)=O)c4OC)c4ccccc34)ccn2)ccc1C(=O)NCCC(=O)O", "note": "[17(ay) (hydrochloride salt), 3-(4-((4-((4-(3-(5-(tert-Butyl)-2-methoxy-3-(methylsulfonamido)phenyl)ureido)-naphthalen-1-yl)oxy)pyridin-2-yl)amino)-2-methoxybenzamido)propanoic acid]", "values": [{"measurement": "solubility thermodynamic at 24 h", "setting": "[1]", "result": 29, "unit": "µg/mL"}, {"measurement": "solubility thermodynamic at 24 h", "setting": "[2]", "result": 28, "unit": "µg/mL"}]}
{"smiles": "COc1cc(Nc2cc(Oc3ccc(NC(=O)Nc4cc(C(C)(C)C)cc(NS(C)(=O)=O)c4OC)c4ccccc34)ccn2)ccc1C(=O)N[C@@H](CO)C(=O)O", "note": "[17(bj) (sodium salt), (S)-2-(4-((4-((4-(3-(5-(tert-Butyl)-2-methoxy-3-(methylsulfonamido)phenyl)ureido)-naphthalen-1-yl)oxy)pyridin-2-yl)amino)-2-methoxybenzamido)-3-hydroxypropanoic acid]", "values": [{"measurement": "solubility thermodynamic at 24 h", "setting": "[1]", "result": 1310, "unit": "µg/mL"}]}
{"smiles": "CCC(=O)NS(=O)(=O)c1ccc(Nc2nccc(Oc3ccc(NC(=O)Nc4cc(C(C)(C)C)cc(NS(C)(=O)=O)c4OC)c4ccccc34)n2)cc1OC", "note": "[17(bk) (sodium salt), N-((4-((4-((4-(3-(5-(tert-Butyl)-2-methoxy-3-(methylsulfonamido)phenyl)ureido)-naphthalen-1-yl)oxy)pyrimidin-2-yl)amino)-2-methoxyphenyl)sulfonyl)propionamide]", "values": [{"measurement": "solubility thermodynamic at 24 h", "setting": "[1]", "result": 42, "unit": "µg/mL"}, {"measurement": "solubility thermodynamic at 24 h", "setting": "[2]", "result": 37, "unit": "µg/mL"}]}
{"smiles": "COc1cc(Nc2cc(Oc3ccc(NC(=O)Nc4cc(C(C)(C)C)cc(NS(C)(=O)=O)c4OC)c4ccccc34)ccn2)ccc1C(=O)NCCO", "note": "[17(bn), 4-((4-((4-(3-(5-(tert-Butyl)-2-methoxy-3-(methylsulfonamido)phenyl)ureido)naphthalen-1-yl)oxy)pyridin-2-yl)amino)-N-(2-hydroxyethyl)-2-methoxybenzamide]", "values": [{"measurement": "solubility thermodynamic at 24 h", "setting": "[1]", "result": 8, "unit": "µg/mL"}, {"measurement": "solubility thermodynamic at 24 h", "setting": "[2]", "result": 6, "unit": "µg/mL"}]}
{"smiles": "COc1cc(Nc2cc(Oc3ccc(NC(=O)Nc4cc(C(C)(C)C)cc(NS(C)(=O)=O)c4OC)c4ccccc34)ccn2)ccc1C(=O)N[C@H]1C(O)O[C@H](CO)[C@@H](O)[C@@H]1O", "note": "(stereo partly drawn) [17(br), 4-((4-((4-(3-(5-(tert-Butyl)-2-methoxy-3-(methylsulfonamido)phenyl)ureido)naphthalen-1-yl)oxy)pyridin-2-yl)amino)-2-methoxy-N-((3R,4R,5S,6R)-2,4,5-trihydroxy-6-(hydroxymethyl)tetrahydro-2H-pyran-3-yl)benzamide]", "values": [{"measurement": "solubility thermodynamic at 24 h", "setting": "[1]", "result": 9, "unit": "µg/mL"}, {"measurement": "solubility thermodynamic at 24 h", "setting": "[2]", "result": 8, "unit": "µg/mL"}]}
{"smiles": "COc1cc(Nc2cc(Oc3ccc(NC(=O)Nc4cc(C(C)(C)C)cc(NS(C)(=O)=O)c4OC)c4ccccc34)ccn2)ccc1C(=O)NCCCC[C@H](N)C(=O)O", "note": "[17(bu) (dihydrochloride salt), (S)-2-Amino-6-(4-((4-((4-(3-(5-(tert-butyl)-2-methoxy-3-(methylsulfonamido)phenyl)-ureido)naphthalen-1-yl)oxy)pyridin-2-yl)amino)-2-methoxybenzamido)hexanoic acid]", "values": [{"measurement": "solubility thermodynamic at 24 h", "setting": "[1]", "result": 6, "unit": "µg/mL"}, {"measurement": "solubility thermodynamic at 24 h", "setting": "[2]", "result": 6, "unit": "µg/mL"}]}
{"smiles": "COc1cc(Nc2cc(Oc3ccc(NC(=O)Nc4cc(C(C)(C)C)cc(NS(C)(=O)=O)c4OC)c4ccccc34)ccn2)ccc1C(=O)NC[C@H](O)[C@@H](O)[C@H](O)[C@H](O)CO", "note": "[17(bw), 4-((4-((4-(3-(5-(tert-Butyl)-2-methoxy-3-(methylsulfonamido)phenyl)ureido)naphthalen-1-yl)oxy)pyridin-2-yl)amino)-2-methoxy-N-((2S,3R,4R,5R)-2,3,4,5,6-pentahydroxyhexyl)benzamide]", "values": [{"measurement": "solubility thermodynamic at 24 h", "setting": "[1]", "result": 2, "unit": "µg/mL"}, {"measurement": "solubility thermodynamic at 24 h", "setting": "[2]", "result": 3, "unit": "µg/mL"}]}
{"smiles": "COc1cc(Nc2cc(Oc3ccc(NC(=O)Nc4cc(C(C)(C)C)cc(NS(C)(=O)=O)c4OC)c4ccccc34)ccn2)cc(OC)c1C(=O)NC1CCN(C)CC1", "note": "[17(bz), 4-((4-((4-(3-(5-(tert-Butyl)-2-methoxy-3-(methylsulfonamido)phenyl)ureido)naphthalen-1-yl)oxy)pyridin-2-yl)amino)-2,6-dimethoxy-N-(1-methylpiperidin-4-yl)benzamide]", "values": [{"measurement": "solubility thermodynamic at 24 h", "setting": "[1]", "result": 21, "unit": "µg/mL"}, {"measurement": "solubility thermodynamic at 24 h", "setting": "[2]", "result": 26, "unit": "µg/mL"}, {"measurement": "solubility thermodynamic at 24 h", "setting": "pH 6.5 FaSSCoF Solubility (mg/mL) Run 3", "result": 14, "unit": "µg/mL"}, {"measurement": "solubility thermodynamic at 24 h", "setting": "pH 6.5 FaSSCoF Solubility (mg/mL) Run 4", "result": 19, "unit": "µg/mL"}]}
{"smiles": "COc1cc(Nc2cc(Oc3ccc(NC(=O)Nc4cc(C(C)(C)C)cc(NS(C)(=O)=O)c4OC)c4ccccc34)ccn2)ccc1C(=O)NCCNC(=O)CCC(=O)O", "note": "[17(cd) (hydrochloride salt), 4-((2-(4-((4-((4-(3-(5-(tert-Butyl)-2-methoxy-3-(methylsulfonamido)phenyl)ureido)-naphthalen-1-yl)oxy)pyridin-2-yl)amino)-2-methoxybenzamido)ethyl)amino)-4-oxobutanoic acid]", "values": [{"measurement": "solubility thermodynamic at 24 h", "setting": "[1]", "result": 51, "unit": "µg/mL"}, {"measurement": "solubility thermodynamic at 24 h", "setting": "[2]", "result": 49, "unit": "µg/mL"}]}
{"smiles": "COc1cc(Nc2cc(Oc3ccc(NC(=O)Nc4cc(C(C)(C)C)cc(NS(C)(=O)=O)c4OC)c4ccccc34)ccn2)ccc1C(=O)NCCC(=O)N1C[C@H](O)[C@@H](O)[C@H](O)[C@H]1CO", "note": "[17(cf), 4-((4-((4-(3-(5-(tert-Butyl)-2-methoxy-3-(methylsulfonamido)phenyl)ureido)naphthalen-1-yl)oxy)pyridin-2-yl)amino)-2-methoxy-N-(3-oxo-3-((2R,3R,4R,5S)-3,4,5-trihydroxy-2-(hydroxymethyl)piperidin-1-yl)propyl)benzamide]", "values": [{"measurement": "solubility thermodynamic at 24 h", "setting": "[1]", "result": 3, "unit": "µg/mL"}, {"measurement": "solubility thermodynamic at 24 h", "setting": "[2]", "result": 1, "unit": "µg/mL"}]}
{"smiles": "COc1cc(Nc2cc(Oc3ccc(NC(=O)Nc4cc(C(C)(C)C)cc(NS(C)(=O)=O)c4OC)c4ccccc34)ccn2)cc(OC)c1C(=O)N1CCN(CCN(C)C)CC1", "note": "[17(cg), N-(5-(tert-Butyl)-3-(3-(4-((2-((4-(4-(2-(dimethylamino)ethyl)piperazine-1-carbonyl)-3,5-dimethoxyphenyl)amino)pyridin-4-yl)oxy)naphthalen-1-yl)ureido)-2-methoxyphenyl)methane sulfonamide]", "values": [{"measurement": "solubility thermodynamic at 24 h", "setting": "[1]", "result": 2, "unit": "µg/mL"}]}
{"smiles": "COc1cc(Nc2cc(Oc3ccc(NC(=O)Nc4cc(C(C)(C)C)cc(NS(C)(=O)=O)c4OC)c4ccccc34)ccn2)ccc1C(=O)NCCN1CCN(C(=O)CN(C)C)CC1", "note": "[17(cj), 4-((4-((4-(3-(5-(tert-Butyl)-2-methoxy-3-(methylsulfonamido)phenyl)ureido)naphthalen-1-yl)oxy)pyridin-2-yl)amino)-N-(2-(4-(2-(dimethylamino)acetyl)piperazin-1-yl)ethyl)-2-methoxybenzamide]", "values": [{"measurement": "solubility thermodynamic at 24 h", "setting": "[1]", "result": 6, "unit": "µg/mL"}, {"measurement": "solubility thermodynamic at 24 h", "setting": "[2]", "result": 6, "unit": "µg/mL"}]}
{"smiles": "COc1cc(Nc2cc(Oc3ccc(NC(=O)Nc4cc(C(C)(C)C)cc(NS(C)(=O)=O)c4OC)c4ccccc34)ccn2)cc(OC)c1C(=O)NCC(CO)(CO)CO", "note": "[17(cn), 4-((4-((4-(3-(5-(tert-Butyl)-2-methoxy-3-(methylsulfonamido)phenyl)ureido)naphthalen-1-yl)oxy)pyridin-2-yl)amino)-N-(3-hydroxy-2,2-bis(hydroxymethyl)propyl)-2,6-dimethoxybenzamide]", "values": [{"measurement": "solubility thermodynamic at 24 h", "setting": "[1]", "result": 25, "unit": "µg/mL"}, {"measurement": "solubility thermodynamic at 24 h", "setting": "[2]", "result": 17, "unit": "µg/mL"}]}
